Laboratory results from ChEMBL document CHEMBL1759842, “Discovery of non-glucoside SGLT2 inhibitors” (Bioorg Med Chem Lett, 2011).

Key:
Format in all cases: cell-based
[1] = target: T1, Sodium/glucose cotransporter 1 (Homo sapiens, UniProt P13866); assay: Inhibition of human SGLT1 expressed in CHO cells assessed as inhibition of [14C]-alpha-methyl-D-glucopyranoside transport after 60 mins by scintillation counting
T1 sequence (P13866 whole entry): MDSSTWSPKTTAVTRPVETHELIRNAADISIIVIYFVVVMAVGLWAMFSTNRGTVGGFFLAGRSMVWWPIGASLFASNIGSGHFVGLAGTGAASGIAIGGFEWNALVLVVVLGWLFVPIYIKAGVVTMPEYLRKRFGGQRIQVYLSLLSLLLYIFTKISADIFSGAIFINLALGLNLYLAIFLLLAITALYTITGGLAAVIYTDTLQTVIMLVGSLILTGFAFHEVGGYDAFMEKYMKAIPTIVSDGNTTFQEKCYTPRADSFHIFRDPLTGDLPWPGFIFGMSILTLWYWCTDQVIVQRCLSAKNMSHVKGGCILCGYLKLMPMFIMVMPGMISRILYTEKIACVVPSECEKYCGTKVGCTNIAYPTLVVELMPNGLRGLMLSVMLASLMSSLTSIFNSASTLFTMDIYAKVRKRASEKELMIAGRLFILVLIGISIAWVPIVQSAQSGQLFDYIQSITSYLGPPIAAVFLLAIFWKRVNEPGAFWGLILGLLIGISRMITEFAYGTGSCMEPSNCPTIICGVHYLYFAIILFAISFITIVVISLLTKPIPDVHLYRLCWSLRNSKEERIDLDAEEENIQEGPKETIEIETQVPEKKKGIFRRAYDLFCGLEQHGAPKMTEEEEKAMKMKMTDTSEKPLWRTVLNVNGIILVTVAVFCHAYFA

[2] = target: T2, Sodium/glucose cotransporter 1 (Rattus norvegicus, UniProt P53790); assay: Inhibition of rat SGLT1 expressed in CHO cells assessed as inhibition of [14C]-alpha-methyl-D-glucopyranoside transport after 60 mins by scintillation counting
T2 sequence (P53790 whole entry): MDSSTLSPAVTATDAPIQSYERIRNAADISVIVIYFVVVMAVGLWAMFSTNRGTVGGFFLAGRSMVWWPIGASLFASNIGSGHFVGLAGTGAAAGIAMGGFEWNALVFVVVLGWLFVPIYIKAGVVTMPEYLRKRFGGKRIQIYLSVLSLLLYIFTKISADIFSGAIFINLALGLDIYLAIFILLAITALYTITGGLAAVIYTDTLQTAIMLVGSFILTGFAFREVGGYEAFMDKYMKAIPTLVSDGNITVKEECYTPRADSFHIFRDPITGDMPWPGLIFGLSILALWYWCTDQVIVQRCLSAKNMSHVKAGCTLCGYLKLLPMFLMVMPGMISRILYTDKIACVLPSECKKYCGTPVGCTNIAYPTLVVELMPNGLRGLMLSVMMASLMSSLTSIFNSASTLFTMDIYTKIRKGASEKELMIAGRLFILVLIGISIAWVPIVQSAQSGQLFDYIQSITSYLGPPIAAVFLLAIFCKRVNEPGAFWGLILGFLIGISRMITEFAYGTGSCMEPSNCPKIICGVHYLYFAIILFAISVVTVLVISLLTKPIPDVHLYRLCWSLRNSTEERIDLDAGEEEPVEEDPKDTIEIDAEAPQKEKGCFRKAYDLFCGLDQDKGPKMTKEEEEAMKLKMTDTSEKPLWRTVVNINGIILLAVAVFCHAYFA

[3] = target: T3, SGLT1 protein (Mus musculus, UniProt Q9QXI6); assay: Inhibition of mouse SGLT1 expressed in CHO cells assessed as inhibition of [14C]-alpha-methyl-D-glucopyranoside transport after 60 mins by scintillation counting
T3 sequence (Q9QXI6 whole entry): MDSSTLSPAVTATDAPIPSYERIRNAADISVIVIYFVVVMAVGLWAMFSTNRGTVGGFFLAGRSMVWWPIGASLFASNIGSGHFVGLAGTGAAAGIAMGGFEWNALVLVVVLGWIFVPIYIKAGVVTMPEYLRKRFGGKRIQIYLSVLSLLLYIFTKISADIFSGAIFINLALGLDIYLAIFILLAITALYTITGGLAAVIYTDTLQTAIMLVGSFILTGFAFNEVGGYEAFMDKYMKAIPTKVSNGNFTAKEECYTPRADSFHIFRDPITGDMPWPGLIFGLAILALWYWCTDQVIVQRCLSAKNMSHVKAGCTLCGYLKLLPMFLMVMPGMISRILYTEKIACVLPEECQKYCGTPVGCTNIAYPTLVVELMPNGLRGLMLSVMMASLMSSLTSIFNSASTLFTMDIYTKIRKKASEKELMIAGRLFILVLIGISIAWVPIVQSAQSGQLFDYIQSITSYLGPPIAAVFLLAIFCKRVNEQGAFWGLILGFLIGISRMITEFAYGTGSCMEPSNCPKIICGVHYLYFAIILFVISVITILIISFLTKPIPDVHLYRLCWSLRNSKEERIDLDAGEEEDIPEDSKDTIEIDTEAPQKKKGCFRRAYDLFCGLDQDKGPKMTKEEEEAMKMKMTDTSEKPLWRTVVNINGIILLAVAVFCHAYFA

[4] = target: T4, Sodium/glucose cotransporter 2 (Rattus norvegicus, UniProt P53792); assay: Inhibition of rat SGLT2 expressed in CHO cells assessed as inhibition of [14C]-alpha-methyl-D-glucopyranoside transport after 60 mins by scintillation counting
T4 sequence (P53792 whole entry): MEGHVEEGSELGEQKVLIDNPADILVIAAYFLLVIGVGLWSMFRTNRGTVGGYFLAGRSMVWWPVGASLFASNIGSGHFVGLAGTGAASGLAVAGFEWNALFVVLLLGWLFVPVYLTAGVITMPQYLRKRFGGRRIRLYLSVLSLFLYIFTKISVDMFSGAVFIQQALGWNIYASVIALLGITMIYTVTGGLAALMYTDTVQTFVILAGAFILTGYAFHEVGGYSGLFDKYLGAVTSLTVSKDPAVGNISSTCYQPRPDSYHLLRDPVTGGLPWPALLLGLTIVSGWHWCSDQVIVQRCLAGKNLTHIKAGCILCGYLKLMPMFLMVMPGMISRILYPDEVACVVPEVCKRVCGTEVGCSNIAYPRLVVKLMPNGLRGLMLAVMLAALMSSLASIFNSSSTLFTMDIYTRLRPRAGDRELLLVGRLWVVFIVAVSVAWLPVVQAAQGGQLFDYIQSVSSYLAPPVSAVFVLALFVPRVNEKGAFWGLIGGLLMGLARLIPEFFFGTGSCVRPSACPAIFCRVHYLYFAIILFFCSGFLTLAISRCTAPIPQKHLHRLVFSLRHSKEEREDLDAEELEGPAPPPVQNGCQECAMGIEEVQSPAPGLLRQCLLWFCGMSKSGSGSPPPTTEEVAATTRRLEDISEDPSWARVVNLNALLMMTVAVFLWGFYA

IC50 [1]: 7 µM
IC50 [2]: 9 µM
IC50 [3]: 3 µM
IC50 [4]: 0.4 µM
SMILES: Cn1c(CN2C(=O)CSc3ccc(C(F)(F)F)cc32)nnc1SCc1ccc(Cl)cc1
